According to patent US5736510A, “Antibiotics 10381v, w, x,y, z1, z2, pre-b and t” (priority 1996, dated 1998):
Like-named read-outs stand apart in the source and are kept apart here.

Key:
Assay type in all cases: cell-based
[1] = test system: F. necrophorum; conditions: for M.I.C.: Table III, mass basis, no correction for purity; for Minimal Inhibitory Concentration (bioactivity data): Table IV (separate study)
[2] = test system: R. amylophilus; conditions: strain H18; for Minimal Inhibitory Concentration (bioactivity data): Table IV (separate study)
[3] = test system: E. lentum; conditions: strain L-34; Table IV (separate study)
[4] = test system: B. fragilis; conditions: strain UC9370; for Minimal Inhibitory Concentration (bioactivity data): Table IV (separate study)
[5] = test system: S. bovis; conditions: strain JB1; for Minimal Inhibitory Concentration (bioactivity data): Table IV (separate study)
[6] = test system: L. multiparus; conditions: strain 40; for Minimal Inhibitory Concentration (bioactivity data): Table IV (separate study)
[7] = test system: S. hyodysenteriae; design: unit not given here; conditions: Table IV (separate study)
Description: (§1) The assay measures the ability of a compound to inhibit the growth of certain types of anaerobic bacteria which normally inhabit the gut of poultry, swine or cattle.
(§2) Two mg/ml solutions of the drugs to be tested are made in 10% v/v ethanol/water. This stock is then diluted to one mg per ml and then further diluted through a series of ten-two fold dilutions. At each concentration an aliquot is placed in a sterile petri plate. Nine volumes of molten agar are then added to each plate, mixed and allowed to harden at room temperature. These plates are then transferred to a Coy chamber and allowed to dry and equilibrate with the oxygen free atmosphere.
(§3) Organisms used for MIC testing are inoculated into broth media, and incubated 18-24 h at 39° C. prior to use. The cultures are then diluted to equal the turbidity of a 0.5 MacFarland barium sulfate standard, except for the porcine isolates P108-3C1, P105-1C3 and P105-1C4 which are diluted 1:1. All inoculations and dilutions are performed in the anaerobic chamber using broth media and syringe transfer through the butyl robber stoppers.
(§4) Freshly prepared and diluted cultures are loaded into the wells of a Steers replicator device. This apparatus can dispense ca 10 μl of each of 32 cultures onto the surface of the preincubated agar plates. One hour after the inoculation, the inoculum will have been absorbed and the plates are inverted and incubated at 38°-39° C. for 48 h. Plates are then removed from the chamber and the MIC for the test compounds determined. MIC's are reported as the lowest concentration of a compound which prevented detectable growth of a test organism on the agar plates. […] Thus, each set of test plates yields individual MIC values for each of the 32 test organisms.

[8] = test system: P. ruminicola; conditions: strain 118B; for Minimal Inhibitory Concentration (bioactivity data): Table IV (separate study)
[9] = test system: R. flavefaciens; conditions: for M.I.C.: Table III, mass basis, no correction for purity; for Minimal Inhibitory Concentration (bioactivity data): Table IV (separate study)
[10] = test system: B. fibrisolvens; conditions: for M.I.C.: Table III, mass basis, no correction for purity; for Minimal Inhibitory Concentration (bioactivity data): Table IV (separate study)
[11] = test system: B. thetaiotaomicron; conditions: strain UC9014; for Minimal Inhibitory Concentration (bioactivity data): Table IV (separate study)
Description: as §1, §2, §3, §4

[12] = test system: anaerobic bacteria which normally inhabit the gut of poultry, swine or cattle; experiment: in vitro MIC assay, overall comparison of components across the test organisms; conditions: conclusion from Tables III and IV
Description: as §1, §2, §3, §4

[13] = test system: E. ruminantium; conditions: strain GA195; Table III; mass basis, no correction for purity
[14] = test system: M. elsdenii; conditions: strain B159; for Minimal Inhibitory Concentration (bioactivity data): Table IV (separate study)
[15] = test system: S. ruminantium; conditions: for M.I.C.: Table III, mass basis, no correction for purity; for Minimal Inhibitory Concentration (bioactivity data): Table IV (separate study)
[16] = test system: S. faecalis; conditions: for M.I.C.: Table III, mass basis, no correction for purity; for Minimal Inhibitory Concentration (bioactivity data): Table IV (separate study)
[17] = test system: C. perfringens; design: Minimal Inhibitory Concentration (bioactivity data): unit not given here; conditions: for M.I.C.: Table III, mass basis, no correction for purity; for Minimal Inhibitory Concentration (bioactivity data): Table IV (separate study)
[18] = Table III, mass basis, no correction for purity

C=C(NC(=O)C(=C)NC(=O)C(=C)NC(=O)c1ccc2c(n1)-c1coc(n1)C(=C)NC(=O)C(=C)NC(=O)c1nc(oc1C)/C(=C/C)NC(=O)c1csc(n1)C(OC)NC(=O)c1nc(oc1C)/C(=C/C(C)O)NC(=O)[C@H]([C@@H](C)O)NC(=O)c1csc-2n1)C(N)=O (stereo partly shown) [Antibiotic 10381b, sulfomycin I, reference compound]
50.0 µg/mL: M.I.C. ([1]; strain FN4070) | M.I.C. ([17]; strain P1051C3)
1.6 µg/mL: M.I.C. [6, 18] | M.I.C. ([9]; strain FD1) | M.I.C. ([17]; strain 71A02)
3.1: Minimal Inhibitory Concentration (bioactivity data) ([16]; strain P1051C4)
25.0: Minimal Inhibitory Concentration (bioactivity data) [11]
12.5 µg/mL: M.I.C. [11, 18] | M.I.C. ([16]; strain CCS1-03) | M.I.C. ([16]; strain P1051C4)
> 100.0 µg/mL: M.I.C. [2, 18] | M.I.C. [14, 18] | M.I.C. ([15]; strain GA192)
second most active: in vitro activity ranking of the individual components [12]
12.5: Minimal Inhibitory Concentration (bioactivity data) ([16]; strain 71A01) | Minimal Inhibitory Concentration (bioactivity data) ([17]; strain A82-1) | Minimal Inhibitory Concentration (bioactivity data) ([17]; strain P1051C3)
100: Minimal Inhibitory Concentration (bioactivity data) ([1]; strain FN4070) | Minimal Inhibitory Concentration (bioactivity data) ([1]; strain FN5052)
3.1 µg/mL: M.I.C. [5, 18] | M.I.C. ([17]; strain A82-1) | M.I.C. ([17]; strain A83-3) | M.I.C. ([17]; strain UC9452)
< 0.2 µg/mL: M.I.C. [8, 18]
0.8: Minimal Inhibitory Concentration (bioactivity data) [5] | Minimal Inhibitory Concentration (bioactivity data) ([9]; strain C94) | Minimal Inhibitory Concentration (bioactivity data) ([10]; strain D1) | Minimal Inhibitory Concentration (bioactivity data) ([15]; strain GA31) | Minimal Inhibitory Concentration (bioactivity data) ([17]; strain A83-RKP) | Minimal Inhibitory Concentration (bioactivity data) ([17]; strain CCS2-09)
> 100: Minimal Inhibitory Concentration (bioactivity data) ([7]; strain 16-4) | Minimal Inhibitory Concentration (bioactivity data) ([7]; strain B204) | Minimal Inhibitory Concentration (bioactivity data) [14]
0.4 µg/mL: M.I.C. [13] | M.I.C. ([17]; strain P1083C1) | M.I.C. ([17]; strain RF1B04)
0.8 µg/mL: M.I.C. ([9]; strain C94) | M.I.C. ([10]; strain D1) | M.I.C. ([17]; strain A83-RKP) | M.I.C. ([17]; strain CCS2-09)
6.3 µg/mL: M.I.C. ([10]; strain 49) | M.I.C. ([17]; strain CCS1-11)
1.6: Minimal Inhibitory Concentration (bioactivity data) [2] | Minimal Inhibitory Concentration (bioactivity data) [6] | Minimal Inhibitory Concentration (bioactivity data) ([9]; strain FD1) | Minimal Inhibitory Concentration (bioactivity data) ([10]; strain 49) | Minimal Inhibitory Concentration (bioactivity data) ([15]; strain GA192) | Minimal Inhibitory Concentration (bioactivity data) ([17]; strain P1083C1) | Minimal Inhibitory Concentration (bioactivity data) ([17]; strain UC9452)
50.0: Minimal Inhibitory Concentration (bioactivity data) [4]
25.0 µg/mL: M.I.C. [4, 18] | M.I.C. ([16]; strain 71A01)
6.3: Minimal Inhibitory Concentration (bioactivity data) ([16]; strain CCS1-03)
100.0 µg/mL: M.I.C. ([1]; strain FN5052) | M.I.C. ([15]; strain GA31)
< 0.2: Minimal Inhibitory Concentration (bioactivity data) [3] | Minimal Inhibitory Concentration (bioactivity data) [8] | Minimal Inhibitory Concentration (bioactivity data) ([17]; strain 71A02) | Minimal Inhibitory Concentration (bioactivity data) ([17]; strain A83-3) | Minimal Inhibitory Concentration (bioactivity data) ([17]; strain CCS1-11) | Minimal Inhibitory Concentration (bioactivity data) ([17]; strain RF1B04)

C=C(NC(=O)C(=C)NC(=O)C(=C)NC(=O)c1ccc2c(n1)-c1coc(n1)C(=C)NC(=O)C(=C)NC(=O)c1nc(oc1C)C(=CC)NC(=O)c1csc(n1)CNC(=O)c1nc(oc1C)C(=CC(C)O)NC(=O)C(C(C)O)NC(=O)c1csc-2n1)C(N)=O (stereo not shown) [Antibiotic 10381pre-b]
12.5: Minimal Inhibitory Concentration (bioactivity data) ([10]; strain D1)
< 0.2: Minimal Inhibitory Concentration (bioactivity data) [3] | Minimal Inhibitory Concentration (bioactivity data) [8]
25.0: Minimal Inhibitory Concentration (bioactivity data) ([9]; strain C94) | Minimal Inhibitory Concentration (bioactivity data) ([9]; strain FD1) | Minimal Inhibitory Concentration (bioactivity data) ([17]; strain P1083C1) | Minimal Inhibitory Concentration (bioactivity data) ([17]; strain UC9452)
considerably less active: in vitro activity ranking of the individual components [12]
50.0: Minimal Inhibitory Concentration (bioactivity data) [5] | Minimal Inhibitory Concentration (bioactivity data) ([10]; strain 49) | Minimal Inhibitory Concentration (bioactivity data) ([15]; strain GA31) | Minimal Inhibitory Concentration (bioactivity data) ([17]; strain CCS2-09)
1.6: Minimal Inhibitory Concentration (bioactivity data) ([17]; strain A83-3) | Minimal Inhibitory Concentration (bioactivity data) ([17]; strain A83-RKP) | Minimal Inhibitory Concentration (bioactivity data) ([17]; strain RF1B04)
> 100: Minimal Inhibitory Concentration (bioactivity data) ([1]; strain FN4070) | Minimal Inhibitory Concentration (bioactivity data) ([1]; strain FN5052) | Minimal Inhibitory Concentration (bioactivity data) [2] | Minimal Inhibitory Concentration (bioactivity data) [4] | Minimal Inhibitory Concentration (bioactivity data) [6] | Minimal Inhibitory Concentration (bioactivity data) ([7]; strain 16-4) | Minimal Inhibitory Concentration (bioactivity data) ([7]; strain B204) | Minimal Inhibitory Concentration (bioactivity data) [11] | Minimal Inhibitory Concentration (bioactivity data) [14] | Minimal Inhibitory Concentration (bioactivity data) ([16]; strain 71A01) | Minimal Inhibitory Concentration (bioactivity data) ([16]; strain CCS1-03) | Minimal Inhibitory Concentration (bioactivity data) ([16]; strain P1051C4) | Minimal Inhibitory Concentration (bioactivity data) ([17]; strain A82-1) | Minimal Inhibitory Concentration (bioactivity data) ([17]; strain P1051C3)
6.3: Minimal Inhibitory Concentration (bioactivity data) ([15]; strain GA192)
